# According to ChEMBL document CHEMBL5385886, “Design, synthesis and evaluation of nitric oxide releasing derivatives of 2,4-diaminopyrimidine as novel FAK inhibitors for intervention of metastatic triple-negative breast cancer” (Eur J Med Chem, 2023):
# The source made the active and inactive calls. The rule behind the calls is not given here.
# Columns and labels:
# MDA-MB-231 [1] = assay: Antiproliferative activity against human MDA-MB-231 cells assessed as inhibition of cell proliferation incubated for 72 hrs by MTT assay; type: functional, cell-based; conditions: MDA-MB-231, 72 h
# MDA-MB-231 [2] = assay: Antiproliferative activity against human MDA-MB-231 cells assessed as inhibition of cell proliferation incubated for 72 hrs in presence of 4-((8-hydroxyoctyl)oxy)-3-(phenylsulfonyl)-1,2,5-oxadiazole 2-oxide by MTT assay; type: functional, cell-based; conditions: MDA-MB-231, 72 h
# MDA-MB-231 [3] = assay: Antiproliferative activity against human MDA-MB-231 cells assessed as inhibition of cell proliferation at 5 uM incubated for 72 hrs by MTT assay relative to control; type: functional
# MDA-MB-157 = assay: Antiproliferative activity against human MDA-MB-157 cells assessed as inhibition of cell proliferation incubated for 72 hrs by MTT assay; type: functional, cell-based; conditions: MDA-MB-157, 72 h
# MDA-MB-453 = assay: Antiproliferative activity against human MDA-MB-453 cells assessed as inhibition of cell proliferation incubated for 72 hrs by MTT assay; type: functional, cell-based; conditions: MDA-MB-453, 72 h
# Focal adhesion kinase 1 = Focal adhesion kinase 1 (Homo sapiens, UniProt Q05397); assay: Inhibition of FAK (unknown origin)
# MDA-MB-231 [4] = assay: Induction of NO production in human MDA-MB-231 cells at 4 uM incubated for 72 hrs by DAF-FM-DA dye based flow cytometry analysis; type: functional, cell-based
# [5] = Cytotoxicity against human MCF-10A cells assessed as inhibition of cell proliferation incubated for 72 hrs by MTT assay; type: toxicity, cell-based
# MDA-MB-231 [6] = assay: Induction of apoptosis in human MDA-MB-231 cells assessed as live cells at 4 uM incubated for 72 hrs by Annexin V-FITC/PI staining based flow cytometry analysis (reference value: 97.51%); type: functional
# MDA-MB-231 [7] = assay: Induction of apoptosis in human MDA-MB-231 cells assessed as early apoptotic cells at 4 uM incubated for 72 hrs by Annexin V-FITC/PI staining based flow cytometry analysis (reference value: 2.16%); type: functional
# MDA-MB-231 [8] = assay: Induction of apoptosis in human MDA-MB-231 cells assessed as late apoptotic cells at 4 uM incubated for 72 hrs by Annexin V-FITC/PI staining based flow cytometry analysis (reference value: 0.11%); type: functional
# MDA-MB-231 [9] = assay: Induction of apoptosis in human MDA-MB-231 cells assessed as dead cells at 4 uM incubated for 72 hrs by Annexin V-FITC/PI staining based flow cytometry analysis (reference value: 0.23%); type: functional
# Chain of Focal adhesion kinase 1 (Q05397 whole entry): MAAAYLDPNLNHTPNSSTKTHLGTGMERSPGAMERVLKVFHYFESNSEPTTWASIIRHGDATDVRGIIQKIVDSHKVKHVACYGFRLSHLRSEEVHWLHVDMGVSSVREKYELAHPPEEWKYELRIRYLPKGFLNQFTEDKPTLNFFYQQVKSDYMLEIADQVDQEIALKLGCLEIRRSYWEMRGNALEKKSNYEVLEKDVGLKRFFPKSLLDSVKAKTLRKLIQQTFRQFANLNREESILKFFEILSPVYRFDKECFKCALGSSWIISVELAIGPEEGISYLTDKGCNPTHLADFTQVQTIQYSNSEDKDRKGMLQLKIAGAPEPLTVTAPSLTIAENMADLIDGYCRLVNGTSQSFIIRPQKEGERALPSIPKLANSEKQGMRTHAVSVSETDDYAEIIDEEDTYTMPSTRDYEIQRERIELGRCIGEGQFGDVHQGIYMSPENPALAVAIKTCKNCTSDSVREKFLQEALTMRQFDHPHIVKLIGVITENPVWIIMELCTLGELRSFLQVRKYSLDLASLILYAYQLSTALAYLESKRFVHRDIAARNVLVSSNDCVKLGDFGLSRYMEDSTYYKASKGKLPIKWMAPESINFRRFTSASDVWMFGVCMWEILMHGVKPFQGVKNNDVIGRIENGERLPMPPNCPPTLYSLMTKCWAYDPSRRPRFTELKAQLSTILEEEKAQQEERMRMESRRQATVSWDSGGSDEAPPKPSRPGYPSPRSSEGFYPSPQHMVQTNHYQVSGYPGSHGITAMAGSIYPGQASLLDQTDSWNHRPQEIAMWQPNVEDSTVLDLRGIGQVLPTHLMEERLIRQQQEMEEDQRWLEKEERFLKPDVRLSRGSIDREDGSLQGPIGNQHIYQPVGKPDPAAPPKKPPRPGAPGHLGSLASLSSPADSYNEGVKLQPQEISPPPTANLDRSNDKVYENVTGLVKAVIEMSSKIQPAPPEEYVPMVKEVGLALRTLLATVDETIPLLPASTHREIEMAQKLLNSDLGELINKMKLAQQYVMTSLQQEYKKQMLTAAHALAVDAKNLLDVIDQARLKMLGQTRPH
IC50 (MDA-MB-231 [1]) [nM],IC50 (MDA-MB-231 [2]) [nM],IC50 (MDA-MB-157) [nM],IC50 (MDA-MB-453) [nM],IC50 (Focal adhesion kinase 1) [nM],Structure (SMILES),inhibition at 5 µM (MDA-MB-231 [3]) [%],Activity (MDA-MB-231 [4]),IC50 at 72 h [5] [nM],Activity (MDA-MB-231 [6]) [%],Activity (MDA-MB-231 [7]) [%],Activity (MDA-MB-231 [8]) [%],Activity (MDA-MB-231 [9]) [%]
1950,1220,,,,CNC(=O)c1ccccc1Nc1nc(Nc2ccc(CC(=O)O)cc2)ncc1Cl,,,,,,,
130,,235,221,107,CNC(=O)c1ccccc1Nc1nc(Nc2ccc(CC(=O)OCCCCCOc3no[n+]([O-])c3S(=O)(=O)c3ccccc3)cc2)ncc1Cl,> 92,Active,,,,,
225,,275,255,66,CNC(=O)c1ccccc1Nc1nc(Nc2ccc(CC(=O)OCC(C)COc3no[n+]([O-])c3S(=O)(=O)c3ccccc3)cc2)ncc1Cl (configuration not stated),> 92,Active,,,,,

Structure (SMILES),IC50 (MDA-MB-231 [1]) [nM],IC50 (MDA-MB-231 [2]) [nM],IC50 (MDA-MB-157) [nM],IC50 (MDA-MB-453) [nM],IC50 (Focal adhesion kinase 1) [nM],inhibition at 5 µM (MDA-MB-231 [3]) [%],Activity (MDA-MB-231 [4]),IC50 at 72 h [5] [nM],Activity (MDA-MB-231 [6]) [%],Activity (MDA-MB-231 [7]) [%],Activity (MDA-MB-231 [8]) [%],Activity (MDA-MB-231 [9]) [%]
CNC(=O)c1ccccc1Nc1nc(Nc2ccc(N3CCOCC3)cc2OC)ncc1Cl,1170,,912,1220,,,,6470,57.79,40.78,1.31,0.11
